Read-outs that look alike come from different tables or passages of the source. Marks after values point to notes of the source that are not given here.
Columns and labels:
[1] = system: HEK-uPAR xenograft-bearing mice; conditions: ref Beyer et al. 2025, Mol Pharm 22:3242, cited from earlier work
[2] = set-up: method as in Beyer et al. 2025, Mol Pharm 22:3242; conditions: 37 °C, ref Beyer et al. 2025, Mol Pharm 22:3242, cited from earlier work
[3] = system: HEK-uPAR xenograft-bearing mice; conditions: mouse, in vivo
Protocol: (§1) HEK-uPAR xenografted mice were injected with the respective radiopeptide (5 MBq, 0.5 nmol/mouse, 100 µL 0.9% NaCl containing 0.05% BSA) and sacrificed at 4 h and 24 h after injection. […] The tissues and organs of interest were collected, weighed and counted for activity using a γ-counter (Wallac Wizard 1480, PerkinElmer). […] The results were presented as the average ± SD of n = 3 mice. The time-activity curves were determined for the uptake of [^177Lu]Lu-DOTA-AE105 and [^177Lu]Lu-uPAR-11 in the blood, HEK-uPAR xenografts, kidneys and liver based on non-decay corrected biodistribution data. For the blood, the initial uptake (t = 0) was set as 50% IA/g assuming a blood volume of 2 mL for CD1 nude mice. The initial uptake value (t = 0) for all other organs and tissues was set as 0% IA/g. […] The area under the curves over 48 h after injection (AUC0h→48 h) was calculated using GraphPad Prism software (version 10.1.1). Statistical analyses were performed by applying a one-way ANOVA test with a Dunnet’s multiple comparison post‐test to compare the data of the new radiopeptides with those of [^177Lu]Lu-DOTA-AE105 and a Tukey’s multiple comparisons post‐test to compare the novel radiopeptides among them. A p-value of < 0.05 was considered a statistically significant difference using GraphPad Prism software (version 10.1.1).

[4] = set-up: method as in Beyer et al. 2025, Mol Pharm 22:3242; conditions: FVB mice, ref Beyer et al. 2025, Mol Pharm 22:3242, cited from earlier work
[5] = system: HEK-uPAR xenograft-bearing mice; test: Biodistribution in HEK-uPAR xenografted nude mice
Protocol: as §1

[6] = Biodistribution in HEK-uPAR xenografted nude mice; conditions: CD1 nude, mouse, 0.5 nmol/mouse, total radioactivity, 1 h p.i., decay-corrected
Protocol: as §1

[7] = set-up: method as in Beyer et al. 2025, Mol Pharm 22:3242; conditions: saline, L-ascorbic acid, ref Beyer et al. 2025, Mol Pharm 22:3242, cited from earlier work
human serum albumin = human serum albumin (Homo sapiens, UniProt P02768); conditions: cited from earlier work
Sequence of human serum albumin (P02768 25-609): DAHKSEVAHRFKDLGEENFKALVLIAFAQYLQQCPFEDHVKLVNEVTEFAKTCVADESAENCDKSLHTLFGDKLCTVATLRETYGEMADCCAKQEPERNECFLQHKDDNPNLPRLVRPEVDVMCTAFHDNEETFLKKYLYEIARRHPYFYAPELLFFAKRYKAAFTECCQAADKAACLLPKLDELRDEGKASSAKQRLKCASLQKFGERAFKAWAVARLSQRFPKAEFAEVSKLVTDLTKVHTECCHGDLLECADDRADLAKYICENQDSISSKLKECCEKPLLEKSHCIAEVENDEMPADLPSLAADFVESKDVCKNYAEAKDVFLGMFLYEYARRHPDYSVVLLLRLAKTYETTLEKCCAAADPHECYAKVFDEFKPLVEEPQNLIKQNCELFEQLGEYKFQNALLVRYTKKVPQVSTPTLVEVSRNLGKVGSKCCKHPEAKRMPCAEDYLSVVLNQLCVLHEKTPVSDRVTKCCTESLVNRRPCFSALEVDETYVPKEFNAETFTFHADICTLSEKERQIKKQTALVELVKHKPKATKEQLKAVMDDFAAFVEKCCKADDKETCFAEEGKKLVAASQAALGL

[8] = set-up: method as in Beyer et al. 2025, Mol Pharm 22:3242; conditions: 37 °C, ref Beyer et al. 2025, Mol Pharm 22:3242, cited from earlier work; remark: listed apart in the source
[9] = non-decay-corrected, ± standard error

## CC(C)C[C@H](NC(=O)[C@H](Cc1ccc(O)cc1)NC(=O)[C@@H](CCCNC(=N)N)NC(=O)[C@@H](CO)NC(=O)[C@H](Cc1ccccc1)NC(=O)[C@H](CC1CCCCC1)NC(=O)[C@H](CC(=O)O)NC(=O)CN1CCN(CC(=O)O)CCN(CC(=O)O)CCN(CC(=O)O)CC1)C(=O)N[C@@H](Cc1c[nH]c2ccccc12)C(=O)N[C@@H](CO)C(N)=O [[^177Lu]Lu-DOTA-AE105, metal not drawn]
[1]; 4 h p.i.
  Blood uptake: 0.08 ± 0.01 %IA/g
  Bone uptake: 0.38 ± 0.03 %IA/g
  Brain uptake: <0.03 %IA/g
  HEK-uPAR xenograft uptake: 0.87 ± 0.05 %IA/g
  Heart uptake: 0.06 ± 0.01 %IA/g
  Intestines uptake: 0.31 ± 0.03 %IA/g
  Kidneys uptake: 1.5 ± 0.1 %IA/g
  Liver uptake: 0.10 ± 0.01 %IA/g
  Lung uptake: 0.30 ± 0.02 %IA/g
  Muscle uptake: <0.03 %IA/g
  Pancreas uptake: 0.06 ± 0.01 %IA/g
  Salivary glands uptake: 0.09 ± 0.01 %IA/g
  Spleen uptake: 0.18 ± 0.02 %IA/g
  Stomach uptake: 0.15 ± 0.03 %IA/g
  Xgrft-to-blood ratio: 11 ± 1
  Xgrft-to-liver ratio: 8.6 ± 0.4
[1]; 24 h p.i.
  Blood uptake: <0.03 %IA/g
  Bone uptake: 0.84 ± 0.10 %IA/g
  Brain uptake: <0.03 %IA/g
  HEK-uPAR xenograft uptake: 0.40 ± 0.19 %IA/g
  Heart uptake: 0.04 ± 0.01 %IA/g
  Intestines uptake: 0.18 ± 0.02 %IA/g
  Kidneys uptake: 1.3 ± 0.1 %IA/g
  Liver uptake: 0.17 ± 0.01 %IA/g
  Lung uptake: 0.21 ± 0.01 %IA/g
  Muscle uptake: <0.03 %IA/g
  Pancreas uptake: 0.06 ± 0.01 %IA/g
  Salivary glands uptake: 0.09 ± 0.01 %IA/g
  Spleen uptake: 0.23 ± 0.04 %IA/g
  Stomach uptake: 0.17 ± 0.03 %IA/g
  Xgrft-to-blood ratio: 32 ± 13
  Xgrft-to-liver ratio: 2.4 ± 0.9
[2]; 1 h
  Mouse blood plasma stability, intact radiopeptide: 61 ± 6%
[2]; 4 h
  Mouse blood plasma stability, intact radiopeptide: 13 ± 7%
[2]; 24 h
  Mouse blood plasma stability, intact radiopeptide: 4.6 ± 2.2%
[3]
  Xgrft-to-kidney ratio: 0.46 ± 0.07
[4]; 1 h p.i.
  Blood plasma, intact radiopeptide: <1.0%
  Blood plasma, radiometabolite: >99%
  Kidneys, intact radiopeptide: <1.0%
  Kidneys, radiometabolite: >99%
  Liver, intact radiopeptide: <1.0%
  Liver, radiometabolite: >99%
  Urine, intact radiopeptide: 1.4%
  Urine, radiometabolite: 99%
[4]; 4 h p.i.
  Blood plasma, intact radiopeptide: <1.0%
  Blood plasma, radiometabolite: >99%
  Kidneys, intact radiopeptide: <1.0%
  Kidneys, radiometabolite: >99%
  Liver, intact radiopeptide: <1.0%
  Liver, radiometabolite: >99%
  Urine, intact radiopeptide: 2.3%
  Urine, radiometabolite: 98%
[5]; 1 h p.i.
  Xgrft-to-blood ratio: 2.2 ± 0.2
  Xgrft-to-liver ratio: 4.9 ± 0.1
[5]; [9]
  AUC0h→48h, HEK-uPAR xenograft: 26 ± 3 % IA/g*h
  AUC0h→48h, blood: 28 ± 1 % IA/g*h
  AUC0h→48h, kidneys: 62 ± 2 % IA/g*h
  AUC0h→48h, liver: 6.9 ± 0.2 % IA/g*h
[6]; HEK-uPAR xenograft, HEK-uPAR xenograft uptake
  tissue uptake at 1 h: 1.9 ± 0.7 %ID/g
[6]; blood, Blood uptake
  tissue uptake at 1 h: 0.92 ± 0.4 %ID/g
[6]; bone, Bone uptake
  tissue uptake at 1 h: 0.35 ± 0.11 %ID/g
[6]; brain, Brain uptake
  tissue uptake at 1 h: < 0.03 %ID/g
[6]; heart, Heart uptake
  tissue uptake at 1 h: 0.38 ± 0.16 %ID/g
[6]; intestines, Intestines uptake
  tissue uptake at 1 h: 0.52 ± 0.1 %ID/g
[6]; kidneys, Kidneys uptake
  tissue uptake at 1 h: 4.2 ± 0.8 %ID/g
[6]; liver, Liver uptake
  tissue uptake at 1 h: 0.4 ± 0.14 %ID/g
[6]; lung, Lung uptake
  tissue uptake at 1 h: 1.2 ± 0.4 %ID/g
[6]; muscle, Muscle uptake
  tissue uptake at 1 h: 0.14 ± 0.06 %ID/g
[6]; pancreas, Pancreas uptake
  tissue uptake at 1 h: 0.26 ± 0.08 %ID/g
[6]; salivary glands, Salivary glands uptake
  tissue uptake at 1 h: 0.35 ± 0.13 %ID/g
[6]; spleen, Spleen uptake
  tissue uptake at 1 h: 0.47 ± 0.17 %ID/g
[6]; stomach, Stomach uptake
  tissue uptake at 1 h: 0.39 ± 0.2 %ID/g
[7]; 1 h
  Radiolytic stability, intact radiopeptide: 98 ± 2%
[7]; 4 h
  Radiolytic stability, intact radiopeptide: 98 ± 1%
[7]; 24 h
  Radiolytic stability, intact radiopeptide: 96 ± 2%
Human serum albumin
  Inverse relative albumin-binding affinity: 0.02^a
[8]; 1 h
  Human blood plasma stability, intact radiopeptide: 71 ± 3%
[8]; 4 h
  Human blood plasma stability, intact radiopeptide: 13 ± 6%
[8]; 24 h
  Human blood plasma stability, intact radiopeptide: 4.5 ± 1.2%

Reference: paper PMC12920294, “Optimizing uPAR-targeting radiopeptides for improved tissue distribution: progress towards radionuclide therapy” (European Journal of Nuclear Medicine and Molecular Imaging, 2025)
